Like-named read-outs stand apart in the source and are kept apart here.
Assays:
[1] = target: T1, human OATP1B3 transporter (Homo sapiens, UniProt Q9NPD5); assay: Uptake into OATP1B3 and empty vector transfected HEK293 cells; type: in vitro ADME; conditions: for Uptake rate Mean: 2 min; for Uptake ratio: OATP1B3 vs control
T1 construct: expressed in transfected cells; host or cells: HEK293 (transient transfection)
T1 sequence (Q9NPD5 1-702): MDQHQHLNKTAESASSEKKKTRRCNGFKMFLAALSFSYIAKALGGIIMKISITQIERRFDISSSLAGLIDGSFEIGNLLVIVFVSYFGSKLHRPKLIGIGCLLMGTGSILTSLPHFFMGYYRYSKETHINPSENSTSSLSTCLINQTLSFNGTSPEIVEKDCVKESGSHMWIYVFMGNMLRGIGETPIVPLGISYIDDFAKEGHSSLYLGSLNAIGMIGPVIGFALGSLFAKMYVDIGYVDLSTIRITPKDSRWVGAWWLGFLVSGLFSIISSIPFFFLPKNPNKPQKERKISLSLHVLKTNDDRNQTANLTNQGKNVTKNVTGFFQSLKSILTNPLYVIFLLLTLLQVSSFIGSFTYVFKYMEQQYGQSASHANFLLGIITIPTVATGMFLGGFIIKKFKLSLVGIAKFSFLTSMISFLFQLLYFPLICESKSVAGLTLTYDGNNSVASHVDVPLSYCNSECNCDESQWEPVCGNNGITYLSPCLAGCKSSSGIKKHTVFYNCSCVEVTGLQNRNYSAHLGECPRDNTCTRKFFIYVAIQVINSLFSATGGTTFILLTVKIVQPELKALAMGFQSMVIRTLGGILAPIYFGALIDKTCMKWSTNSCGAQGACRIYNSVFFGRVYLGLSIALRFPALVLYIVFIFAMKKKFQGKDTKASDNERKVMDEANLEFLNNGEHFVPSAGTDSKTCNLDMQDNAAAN
Method: Test compound (at 1 and 10 μM) was incubated with both SLC transporter-expressing HEK293 cells and control (empty vector) HEK293 cells for 2 min.

OVXF 899L = assay: 2D monolayer CellTiter-Blue viability, ovarian cancer OVXF 899L (P-gp expressing, multidrug resistant); type: cell-based; conditions: for Test/Control (%) at Drug Concentration: 72 h; for IC50: OVXF 899L
Method: Mebendazole was tested in vitro across a panel of 12 tumor cell lines of ovarian and renal cancer by using a 2D monolayer assay. […] OVXF 899L and RXF 486L are P-gp expressing, multidrug resistant cell lines.
Anti-tumor activity is expressed as absolute and relative IC50/70 values, calculated by 4-parameter non-linear curve fit.

in vitro = conditions: human, cryopreserved hepatocytes (suspension)
Method: The amount of test compound remaining at each time point was analysed by LC-MS/MS. Appropriate control compounds were also incubated.
The final incubation volume was 500 μL. Appropriate control compounds were included, alongside appropriate vehicle control.
The reactions were stopped by transferring 50 μL of incubate to 100 μL acetonitrile containing internal standard at the appropriate time points (0, 5, 10, 20, 40 and 60 min). The termination plates were centrifuged at 2500 rpm at 4° C. for 30 min to precipitate the protein.

CYP2B6 = target: T2, CYP2B6 (Homo sapiens, UniProt P20813); assay: Cytochrome P450 reaction phenotyping, recombinant CYP2B6 (Bactosomes)
T2 sequence (P20813 1-491): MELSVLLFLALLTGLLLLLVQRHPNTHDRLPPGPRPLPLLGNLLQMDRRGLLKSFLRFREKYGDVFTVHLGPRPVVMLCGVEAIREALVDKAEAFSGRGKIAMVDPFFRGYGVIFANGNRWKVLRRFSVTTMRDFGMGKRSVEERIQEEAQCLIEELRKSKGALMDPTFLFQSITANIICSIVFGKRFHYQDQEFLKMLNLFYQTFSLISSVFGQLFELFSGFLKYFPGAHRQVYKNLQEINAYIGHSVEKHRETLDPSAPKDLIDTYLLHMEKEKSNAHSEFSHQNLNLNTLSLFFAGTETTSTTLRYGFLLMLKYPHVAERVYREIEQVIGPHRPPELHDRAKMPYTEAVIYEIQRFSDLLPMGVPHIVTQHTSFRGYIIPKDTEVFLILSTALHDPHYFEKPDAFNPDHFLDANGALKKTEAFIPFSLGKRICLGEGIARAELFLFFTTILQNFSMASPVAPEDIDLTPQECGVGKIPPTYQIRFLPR
Method: Incubations were also performed using control Bactosomes™ (no P450 enzymes present) to reveal any non-enzymatic degradation. Control compounds known to be metabolised specifically by each P450 isoform were included. All incubations were performed singularly for each test compound.
Incubations were also performed using control Bactosomes™ (no P450 enzymes present) to reveal any non-enzymatic degradation. Control compounds known to be metabolised specifically by each P450 isoform were included. All incubations were performed singularly for each test compound. […] The reactions were stopped by transferring an aliquot of incubate to quench solvent at the appropriate time points, in a 1:3 ratio. The termination plates were centrifuged at 3,000 rpm for 20 min at 4° C. to precipitate the protein.

## COC(=O)Nc1nc2ccc(C(=O)c3ccccc3)cc2[nH]1 [Mebendazole, methyl N-(6-benzoyl-1H-benzimidazol-2-yl)carbamate]
[1]; 1 μM, OATP1B3 HEK293 cells
  Uptake rate Mean: 56.6 pmol/mg
[1]; 1 μM
  Uptake ratio: 1.1
[1]; 1 μM, control (empty vector) HEK293 cells
  Uptake rate Mean: 50.1 pmol/mg
[1]; 10 μM, OATP1B3 HEK293 cells
  Uptake rate Mean: 466 pmol/mg
[1]; 10 μM
  Uptake ratio: 1.1
[1]; 10 μM, control (empty vector) HEK293 cells
  Uptake rate Mean: 414 pmol/mg
[1]; 1 and 10 μM
  substrate of the human OATP1B3 transporter: not a substrate
OVXF 899L; OVXF 899, 1.0E+00 μM
  Test/Control (%) at Drug Concentration: 54%
OVXF 899L; OVXF 899, 1.0E−01 μM
  Test/Control (%) at Drug Concentration: 92%
OVXF 899L; OVXF 899, 1.0E−02 μM
  Test/Control (%) at Drug Concentration: 97%
OVXF 899L; OVXF 899, 1.0E−03 μM
  Test/Control (%) at Drug Concentration: 100%
OVXF 899L; OVXF 899, 1.0E−04 μM
  Test/Control (%) at Drug Concentration: 88%
OVXF 899L; OVXF 899, 3.2E+00 μM
  Test/Control (%) at Drug Concentration: 65%
OVXF 899L; OVXF 899, 3.2E−01 μM
  Test/Control (%) at Drug Concentration: 94%
OVXF 899L; OVXF 899, 3.2E−02 μM
  Test/Control (%) at Drug Concentration: 94%
OVXF 899L; OVXF 899, 3.2E−03 μM
  Test/Control (%) at Drug Concentration: 97%
OVXF 899L; OVXF 899, 3.2E−04 μM
  Test/Control (%) at Drug Concentration: 98%
OVXF 899L; OVXF 899, 72 h
  Abs. IC70: >3.200 µM
  Rel. IC70: 0.425 µM
OVXF 899L; OVXF 899, 72 h, curve fit
  Bot. (%): 57%
  Top (%): 95%
OVXF 899L; OVXF 899, 72 h, read-out: Abs. IC50
  IC50: > 3.2 µM
OVXF 899L; OVXF 899, 72 h, read-out: Rel. IC50
  IC50: 0.401 µM
In vitro
  half-life at 1 μM: 1.52 h
  hepatocyte CLint at 1 µM: 15.2 µL/min/1e6 cells
In vitro; with fluvoxamine 10 μM
  half-life at 1 μM: 30.7 h
  hepatocyte CLint at 1 µM: 0.751 µL/min/1e6 cells
In vitro; with fluvoxamine 300 μM
  half-life at 1 μM: 3.75 h
  hepatocyte CLint at 1 µM: 6.16 ± 1.7 µL/min/1e6 cells
In vitro; with mexiletine 10 μM
  half-life at 1 μM: 2.27 h
In vitro; with mexiletine 30 μM
  half-life at 1 μM: 11.9 h
In vitro; with mexiletine 100 μM
  half-life at 1 μM: 5.28 h
In vitro; with mexiletine 300 μM
  half-life at 1 μM: 11.1 h
  hepatocyte CLint at 1 µM: 2.08 ± 1.8 µL/min/1e6 cells
CYP2B6; CYP2B6, 5 μM, 0 min
  Compound Remaining (% of 0 min): 100 % of 0 min
CYP2B6; CYP2B6, 5 μM, 5 min
  Compound Remaining (% of 0 min): 117 % of 0 min
CYP2B6; CYP2B6, 5 μM, 15 min
  Compound Remaining (% of 0 min): 108 % of 0 min
CYP2B6; CYP2B6, 5 μM, 30 min
  Compound Remaining (% of 0 min): 112 % of 0 min
CYP2B6; CYP2B6, 5 μM, 45 min
  Compound Remaining (% of 0 min): 113 % of 0 min
CYP2B6; CYP2B6, 5 μM, time not stated
  % compound remaining: > 87.5%
CYP2B6; CYP2B6, substrate 5 μM
  t1/2: >2.25 h
CYP2B6; human, recombinant CYP2B6 (Bactosomes), pH 7.4
  half-life at 5 μM: > 2.25 h

— patent publication US20220125765A1, “PHARMACEUTICAL COMBINATIONS COMPRISING MEBENDAZOLE AND A STRONG OR MODERATE CYP1A2 INHIBITOR” (ZEPHAPHARM LTD, priority 2019, published 2022)
